| SMILES | melting point |
| --- | --- |
| CC(C)n1nc(-c2sc(C(=O)NCC(N)=O)nc2-c2ccccc2)ccc1=O [Example 222, N-(2-amino-2-oxoethyl)-5-(1-isopropyl-6-oxo-1,6-dihydro-3-pyridazinyl)-4-phenyl-1,3-thiazole-2-carboxamide] | 247.5 to 249 °C |
| CC(C)n1nc(-c2sc(C(=O)NC3CCCCC3)nc2-c2ccccc2)ccc1=O [Example 225, N-Cyclohexyl-5-(1-isopropyl-6-oxo-1,6-dihydro-3-pyridazinyl)-4-phenyl-1,3-thiazole-2-carboxamide] | 225 to 226 °C |
| CC(C)n1nc(-c2sc(C(=O)NCc3ccncc3)nc2-c2ccc(F)cc2)ccc1=O [Example 236, 4-(4-Fluorophenyl)-5-(1-isopropyl-6-oxo-1,6-dihydro-3-pyridazinyl)-N-(4-pyridinylmethyl)-1,3-thiazole-2-carboxamide] | 155 to 157 °C |
| CC(C)n1nc(-c2sc(C(=O)NCCc3ccccn3)nc2-c2ccc(F)cc2)ccc1=O [Example 237, 4-(4-Fluorophenyl)-5-(1-isopropyl-6-oxo-1,6-dihydro-3-pyridazinyl)-N-[2-(2-pyridinyl)ethyl]-1,3-thiazole-2-carboxamide] | 144 to 145 °C |
| CONC(=O)c1nc(-c2ccc(F)cc2)c(-c2ccc(=O)n(C(C)C)n2)s1 [Example 238, 4-(4-fluorophenyl)-5-(1-isopropyl-6-oxo-1,6-dihydro-3-pyridazinyl)-N-methoxy-1,3-thiazole-2-carboxamide] | 164.5 to 166.5 °C |
| CC(C)n1nc(-c2sc(C(=O)NN(C)C)nc2-c2ccc(F)cc2)ccc1=O [Example 239, 4-(4-Fluorophenyl)-5-(1-isopropyl-6-oxo-1,6-dihydro-3-pyridazinyl)-N′,N′-dimethyl-1,3-thiazole-2-carbohydrazide] | 169 to 170.5 °C |
| CC(C)n1nc(-c2sc(C(N)=S)nc2-c2ccccc2)ccc1=O [Example 240, 5-(1-isopropyl-6-oxo-1,6-dihydro-3-pyridazinyl)-4-phenyl-1,3-thiazole-2-carbothioamide] | > 250 °C |

The remaining lines, values ahead:

| melting point | SMILES |
| --- | --- |
| 196.5 to 197.5 °C | CC(C)n1nc(-c2sc(C(=O)NCCN3CCOCC3)nc2-c2ccccc2)ccc1=O [Example 224, 5-(1-Isopropyl-6-oxo-1,6-dihydro-3-pyridazinyl)-N-[2-(4-morpholinyl)-ethyl]-4-phenyl-1,3-thiazole-2-carboxamide] |
| 169 to 170.5 °C | CC(C)n1nc(-c2sc(C(=O)N3CCCC3)nc2-c2ccccc2)ccc1=O [Example 226, 2-Isopropyl-6-[4-phenyl-2-(1-pyrrolidinylcarbonyl)-1,3-thiazol-5-yl]-3(2H)-pyridazinone] |
| 161.5 to 162.5 °C | CC(C)n1nc(-c2sc(C(=O)N3CCOCC3)nc2-c2ccccc2)ccc1=O [Example 227, 2-Isopropyl-6-[2-(4-morpholinylcarbonyl)-4-phenyl-1,3-thiazol-5-yl]-3(2H)-pyridazinone] |
| 155 to 156.5 °C | CC(C)n1nc(-c2sc(C(=O)N3CCN(C)CC3)nc2-c2ccccc2)ccc1=O [Example 228, 2-Isopropyl-6-{2-[(4-methyl-1-piperazinyl)carbonyl]-4-phenyl-1,3-thiazol-5-yl)-3(2H)-pyridazinone] |
| 181 to 182 °C | CC(C)n1nc(-c2sc(C(=O)N3CCN(Cc4ccccc4)CC3)nc2-c2ccccc2)ccc1=O [Example 229, 6-{2-[(4-Benzyl-1-piperazinyl)carbonyl]-4-phenyl-1,3-thiazol-5-yl}-2-isopropyl-3(2H)-pyridazinone] |
| 163.5 to 165 °C | CC(C)n1nc(-c2sc(C(=O)N3CCN(c4ccccc4)CC3)nc2-c2ccccc2)ccc1=O [Example 231, 2-isopropyl-6-(4-phenyl-2-[(4-phenyl-1-piperazinyl)carbonyl]-1,3-thiazol-5-yl}-3(2H)-pyridazinone] |
| 144 to 147 °C | CC(C)n1nc(-c2sc(C(=O)NCCc3ccccn3)nc2-c2ccccc2)ccc1=O [Example 234, 5-(1-Isopropyl-6-oxo-1,6-dihydro-3-pyridazinyl)-4-phenyl-N-[2-(2-pyridinyl)ethyl]-1,3-thiazole-2-carboxamide] |

Reference: patent US20050004134A1, “Thiazole derivative and pharmaceutical use thereof” (priority 2001, published 2005)
